Laboratory results taken from PMC9320114 (Molecules, 2022).

Legend:
hMAO-B = target: T1, hMAO-B (Homo sapiens, UniProt P27338); test: biochemical; conditions: for hMAO-B RA [%] / remaining activity at 10 µM: residual activity at 10 µM; for remaining activity at 10 µM: read-out: hMAO-B RA (%); for IC50: IC50 ± SEM
T1 construct: purchased Sigma Aldrich; host or cells: BTI-TN-5B1-4 baculovirus-infected insect cells
T1 sequence (P27338 1-520): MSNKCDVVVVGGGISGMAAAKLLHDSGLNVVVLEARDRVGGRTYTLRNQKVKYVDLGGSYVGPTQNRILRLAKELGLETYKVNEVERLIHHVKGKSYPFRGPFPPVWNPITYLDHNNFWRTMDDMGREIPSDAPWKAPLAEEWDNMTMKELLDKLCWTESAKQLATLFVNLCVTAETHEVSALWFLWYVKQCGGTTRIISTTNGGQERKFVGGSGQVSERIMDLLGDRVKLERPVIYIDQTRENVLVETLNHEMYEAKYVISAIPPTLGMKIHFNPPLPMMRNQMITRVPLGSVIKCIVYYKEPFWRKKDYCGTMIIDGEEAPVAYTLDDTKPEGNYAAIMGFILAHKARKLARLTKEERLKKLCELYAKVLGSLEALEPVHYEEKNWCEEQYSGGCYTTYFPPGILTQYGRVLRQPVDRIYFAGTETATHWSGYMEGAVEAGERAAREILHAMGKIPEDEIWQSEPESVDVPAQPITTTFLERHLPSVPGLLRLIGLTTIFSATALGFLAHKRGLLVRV
From the text: (§1) The effects of the compounds on hMAO-A and hMAO-B were investigated using a fluorimetric assay, following a method previously described in the literature. Recombinant human microsomal hMAO enzymes expressed in BTI-TN-5B1-4 baculovirus-infected insect cells, horseradish peroxidase (HRP, type II, lyophilized powder), and p-tyramine hydrochloride were purchased from Sigma Aldrich. 10-Acetyl-3,7-dihydroxyphenoxazine (Amplex Red reagent) was synthesized as described in the literature.
After preincubation, the reaction was started by adding final concentrations of 200 µM Amplex Red reagent, 2 U/mL HRP, and 1 mM p-tyramine hydrochloride. Resorufin production was quantified based on the fluorescence produced (λex = 530 nm; λem = 590 nm) at 37 °C over a 20 min period. For the control experiments, DMSO was used instead of appropriate dilutions of the compounds in DMSO. For the determination of blank (b), the enzyme solution was replaced by a phosphate-buffered solution. Initial velocities were calculated from the obtained trend, with each measurement performed in duplicate. Specific fluorescence emission to determine the final results was calculated after subtracting the blank activity (b). Inhibitory potencies were expressed as RAs, and IC50 values were calculated as described in the section “Inhibition of hBChE and mAChE” above.

hMAO-A = target: T2, hMAO-A (Homo sapiens, UniProt P21397); test: Inhibition of hMAO-A, fluorimetric Amplex Red assay; type: biochemical; conditions: residual activity at 10 µM; for remaining activity at 10 µM: read-out: hMAO-A RA (%)
T2 construct: purchased Sigma Aldrich; host or cells: BTI-TN-5B1-4 baculovirus-infected insect cells
T2 sequence (P21397 1-527): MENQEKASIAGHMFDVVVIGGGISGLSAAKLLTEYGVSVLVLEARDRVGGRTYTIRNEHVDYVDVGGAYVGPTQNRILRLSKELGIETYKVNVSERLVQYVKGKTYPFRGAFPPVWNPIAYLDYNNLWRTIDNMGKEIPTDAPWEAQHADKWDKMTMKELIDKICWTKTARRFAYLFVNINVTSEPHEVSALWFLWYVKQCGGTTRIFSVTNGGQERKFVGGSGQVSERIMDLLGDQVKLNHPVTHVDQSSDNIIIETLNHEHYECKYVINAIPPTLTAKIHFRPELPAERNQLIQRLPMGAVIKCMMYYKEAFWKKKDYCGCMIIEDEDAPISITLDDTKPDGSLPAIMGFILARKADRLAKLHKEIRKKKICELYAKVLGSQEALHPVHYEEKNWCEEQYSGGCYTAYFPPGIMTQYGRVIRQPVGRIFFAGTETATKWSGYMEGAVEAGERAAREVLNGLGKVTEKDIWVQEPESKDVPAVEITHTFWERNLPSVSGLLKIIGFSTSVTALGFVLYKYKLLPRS
Procedure: as §1
Briefly, 100 µL of 50 mM sodium phosphate buffer (pH 7.4, 0.05% (v/v) Triton X-114), containing the compounds and hMAO-A or hMAO-B, was incubated for 15 min at 37 °C in a flat-bottomed black 96-well microplate protected from ambient light. After preincubation, the reaction was started by adding final concentrations of 200 µM Amplex Red reagent, 2 U/mL HRP, and 1 mM p-tyramine hydrochloride. Resorufin production was quantified based on the fluorescence produced (λex = 530 nm; λem = 590 nm) at 37 °C over a 20 min period. For the control experiments, DMSO was used instead of appropriate dilutions of the compounds in DMSO. For the determination of blank (b), the enzyme solution was replaced by a phosphate-buffered solution. Initial velocities were calculated from the obtained trend, with each measurement performed in duplicate. Specific fluorescence emission to determine the final results was calculated after subtracting the blank activity (b). Inhibitory potencies were expressed as RAs, and IC50 values were calculated as described in the section “Inhibition of hBChE and mAChE” above.

MurA = MurA (Escherichia coli, UniProt P0A749); test: Inhibition of MurA, colorimetric malachite green method; type: biochemical, bacterial; conditions: Table 1; for MurA RA (%): residual activity at 100 µM
Sequence of MurA (P0A749 whole entry): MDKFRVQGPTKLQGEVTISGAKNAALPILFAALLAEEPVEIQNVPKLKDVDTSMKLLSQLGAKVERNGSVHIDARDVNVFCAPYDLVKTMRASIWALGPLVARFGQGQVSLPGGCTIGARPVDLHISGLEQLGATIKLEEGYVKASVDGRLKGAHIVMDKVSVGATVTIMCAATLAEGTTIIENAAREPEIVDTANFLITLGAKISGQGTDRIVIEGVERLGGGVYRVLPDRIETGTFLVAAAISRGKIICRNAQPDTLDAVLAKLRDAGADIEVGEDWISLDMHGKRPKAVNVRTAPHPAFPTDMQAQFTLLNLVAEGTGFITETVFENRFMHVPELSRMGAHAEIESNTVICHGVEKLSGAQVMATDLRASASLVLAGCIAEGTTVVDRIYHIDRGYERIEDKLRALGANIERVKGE
Procedure: Inhibition of Mur enzymes was monitored with the colorimetric malachite green method, which measured orthophosphate formed during reaction. The mixtures with a final volume of 50 µL contained:
MurA: 50 mM HEPES-NaOH, pH 7.8, 0.005% Triton X-114, 200 µM uridine-diphosphate-N-acetylglucosamine, 100 µM phosphoenolpyruvate, purified MurA, and 50 or 100 µM of each compound tested.
All compounds were soluble in the assay mixtures containing 5% DMSO (v/v). After incubation for 15 min (20 min for DdlB) at 37 °C, the enzyme reaction was terminated by addition of Biomol® reagent (100 µL) and absorbance was measured after 5 min at 650 nm (Synergy™ H4 microplate reader; BioTek Instruments, Inc., BioTek Gen5 Data Analysis Software, version 2.9, Santa Clara, CA, USA). All experiments were performed in duplicate.

[1] = target: human butyrylcholinesterase (hBChE) (Homo sapiens, UniProt P06276); test: biochemical; type: biochemical
Sequence of human butyrylcholinesterase (hBChE) (P06276 29-602): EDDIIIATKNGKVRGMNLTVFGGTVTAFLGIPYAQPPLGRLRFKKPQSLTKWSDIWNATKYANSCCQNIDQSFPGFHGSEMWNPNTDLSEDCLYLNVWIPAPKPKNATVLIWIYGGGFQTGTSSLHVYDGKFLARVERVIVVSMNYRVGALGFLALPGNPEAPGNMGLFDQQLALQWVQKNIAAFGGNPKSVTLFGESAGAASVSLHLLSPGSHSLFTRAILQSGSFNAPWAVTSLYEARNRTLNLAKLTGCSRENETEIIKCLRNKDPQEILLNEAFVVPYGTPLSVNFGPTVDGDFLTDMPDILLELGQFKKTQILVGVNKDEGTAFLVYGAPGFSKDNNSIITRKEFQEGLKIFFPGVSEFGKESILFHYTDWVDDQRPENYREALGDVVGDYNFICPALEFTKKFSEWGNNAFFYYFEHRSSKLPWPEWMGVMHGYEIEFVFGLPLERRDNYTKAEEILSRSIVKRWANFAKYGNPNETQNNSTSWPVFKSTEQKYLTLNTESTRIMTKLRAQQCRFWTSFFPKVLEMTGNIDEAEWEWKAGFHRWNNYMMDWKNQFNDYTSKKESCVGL
Procedure: (§2) Enzyme solutions were prepared by diluting the concentrated enzyme stock solutions (4.6 mg/mL in 10 mM MES-NaOH buffer, pH 6.5) in a sodium phosphate-buffered solution (0.1 M, pH 8.0). […] The final organic solvent (DMSO) content was always 1% (v/v). Reactions were initiated by adding the substrate to the enzyme and inhibitor, which were preincubated for 5 min. […] To determine the blank value (b), the enzyme solution was replaced by a phosphate-buffered solution. The initial velocity (v) was calculated from the slope of the linear trend obtained, with each measurement performed in triplicate. The inhibitory potencies were expressed as RA=(vi − b)/(vo − b), where vi is the velocity in the presence of the test compounds and vo is the control velocity in the presence of DMSO. Seven different concentrations of each compound were used for the IC50 measurements. IC50 values were obtained by plotting the residual enzyme activities against the applied inhibitor concentrations, fitting the experimental data to the 4-parameter Hill equation:(1) Y=Bottom+(Top−Bottom)/1+10^((LogIC50−X)×Hill Slope) where X is the logarithm of the inhibitor concentration, and Y is the residual activity. GraphPad Prism 8.2.0 (GraphPad Software, San Diego, CA, USA) was used for the fitting procedure.

[2] = target: T3, murine acetylcholinesterase (mAChE) (Mus musculus, UniProt P21836); test: biochemical; type: biochemical
T3 sequence (P21836 32-614): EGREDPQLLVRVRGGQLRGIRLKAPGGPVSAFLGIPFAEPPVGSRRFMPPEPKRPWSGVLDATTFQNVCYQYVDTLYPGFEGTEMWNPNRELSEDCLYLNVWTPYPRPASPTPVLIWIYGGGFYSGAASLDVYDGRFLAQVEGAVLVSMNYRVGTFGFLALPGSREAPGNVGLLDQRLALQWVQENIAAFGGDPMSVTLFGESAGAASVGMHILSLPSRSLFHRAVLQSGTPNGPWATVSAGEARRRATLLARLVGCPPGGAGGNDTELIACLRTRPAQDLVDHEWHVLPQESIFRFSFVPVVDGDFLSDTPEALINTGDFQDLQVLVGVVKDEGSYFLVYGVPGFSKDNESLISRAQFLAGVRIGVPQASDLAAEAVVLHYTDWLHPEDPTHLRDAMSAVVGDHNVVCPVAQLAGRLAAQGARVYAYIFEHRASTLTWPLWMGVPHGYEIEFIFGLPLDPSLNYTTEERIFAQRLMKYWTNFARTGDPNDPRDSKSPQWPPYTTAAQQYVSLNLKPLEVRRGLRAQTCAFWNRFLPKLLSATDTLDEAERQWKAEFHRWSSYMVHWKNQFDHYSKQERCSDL
Procedure: as §2

Structure (SMILES)	hMAO-B RA [%] (hMAO-B; Table S3)	hMAO-A RA [%] (hMAO-A; Table S3)	remaining activity at 10 µM (hMAO-B; Table 3)	remaining activity at 10 µM (hMAO-A; Table 3)	other results
CC(=O)N1CCc2cccc(OCC3CCCN3c3ccnc4ncnn34)c2C1 (stereo not shown) [Compound S5]	98%	94%	–	–	–
FC(F)(F)c1ccc2nccc(OCC3CCCN3c3ccnc4ncnn34)c2c1 (stereo not shown) [Compound S1]	75%	70%	–	–	–
CNC(=O)c1cc(Oc2ccc(NC(=O)Nc3cc(C(F)(F)F)ccc3-n3cncn3)cc2)cc[n+]1[O-] [Compound 26]	–	–	98%	89%	–
O=C(OCC1CCCN1c1ccnc2ncnn12)c1cccc(CCl)c1 (stereo not shown) [Compound S7]	93%	70%	–	–	–
Nc1ncnc2c1ncn2-c1ccc(NC(=O)Nc2cc(C(F)(F)F)ccc2-n2cncn2)cc1 [Compound 22]	–	–	6%	111%	IC50 (hMAO-B; Table 3): 0.71 ± 0.1 µM
CCOc1cccc(C(=O)OCC2CCCN2c2ccnc3ncnn23)c1 (stereo not shown) [Compound S6]	88%	96%	–	–	–
N#Cc1cccc(C(=O)OCC2CCCN2c2ccnc3ncnn23)c1 (stereo not shown) [Compound S3]	91%	96%	–	–	–
c1cc(OCC2CCCN2c2ccnc3ncnn23)c2ccncc2c1 (stereo not shown) [Compound S2]	88%	87%	–	–	–
c1cc(OCC2CCCN2c2ccnc3ncnn23)c2cccnc2c1 (stereo not shown) [Compound S4]	99%	80%	–	–	–
CN(C)CCOc1ccc(NC(=O)Nc2cc(C(F)(F)F)ccc2-n2cncn2)cc1 [Compound 27]	–	–	6%	117%	IC50 (hMAO-B; Table 3): 0.465 ± 0.042 µM
COc1ccc2c3c([nH]c2c1)C(C)=NCC3 [Harmaline, reference compound]	–	–	–	0%	–
CNC(=O)c1cc(Oc2ccc(NC(=O)Nc3ccc(Cl)c(C(F)(F)F)c3)cc2)ccn1 [Compound 29]	–	–	89%	86%	–
O=C(OCC1CCCN1c1ccnc2ncnn12)c1cccc(OC(F)(F)F)c1 (stereo not shown) [Compound S10]	81%	92%	–	–	–
O=C(Nc1cc(C(F)(F)F)ccc1-n1cncn1)Nc1ccc(OCCN2CCOCC2)c2ccccc12 [Compound 25]	–	–	86%	79%	–
CNC(=O)c1cc(Oc2ccc(NC(=O)Nc3cc(C(F)(F)F)ccc3-n3cncn3)cc2)ccn1 [Compound 20]	–	–	99%	–	hMAO-A RA [%] (hMAO-A; Table 3): 60%
O=C(NCCc1ccc(Cl)cc1)c1cc(OCC2CCCN2c2ccnc3ncnn23)c2ccccc2n1 (stereo not shown) [Compound S8]	104%	86%	–	–	–
O=C(OCC1CCCN1c1ccnc2ncnn12)c1ccccc1I (stereo not shown) [Compound S9]	93%	90%	–	–	–
Nc1ccc(NC(=O)Nc2cc(C(F)(F)F)ccc2-n2cncn2)cc1 [Compound 23]	–	–	24%	100%	IC50 (hMAO-B; Table 3): 3 ± 0.8 µM
CC(C)(C)c1ccc(C#Cc2ccc(CN(CC3CC3)c3ccc(O)c(C(=O)O)c3)cc2)cc1 [Compound 2]	–	–	–	–	MurA RA (%) (MurA): 64%; hBChE RA (%) [1]: 100%; mAChE RA (%) [2]: 99%
COC(=O)c1cc(N(Cc2ccc(C#Cc3ccc(C(C)(C)C)cc3)cc2)CC2CC2)ccc1F [Compound 9]	–	–	–	–	IC50 (MurA; IC50 ± SEM, read-out: MurA IC50): 91 ± 13 µM; MurA RA (%) (MurA): 10%; hBChE RA (%) [1]: 80%; IC50 [2]: 1.8 ± 0.45 µM
CNC(=O)c1cc(Oc2ccc(NC(=O)Nc3cc(C(F)(F)F)ccc3-n3cncn3)cc2)ccn1 [Compound 21]	–	–	–	–	hMAO-B RA [%] (hMAO-B; Table 3): 88%; hMAO-A RA [%] (hMAO-A; Table 3): 92%
O=C(Nc1ccc(OCCN2CCCCC2)cc1)Nc1cc(C(F)(F)F)ccc1-n1cncn1 [Compound 28]	–	–	15%	94%	IC50 (hMAO-B; Table 3): 2.6 ± 0.1 µM
CNC(=O)c1cc(Oc2ccc(NC(=O)Nc3cc(C(F)(F)F)ccc3F)cc2)ccn1 [Compound 24]	–	–	100%	100%	–
